Test results taken from patent US6462064B1, “Apoptosis inducing adamantyl derivatives and their usage as anti-cancer agents, especially for cervical cancers and dysplasias” (Galderma Research & Development S.N.C., priority 1996, dated 2002).
“Also recorded” adds a separate entry of the source.

system: cancer cells; assay: List of active compounds: types of cancers and precancers active against; assay type: cell-based
Source text: As discussed, the adamantyl retinoid derivatives according to the invention which induce apoptosis are useful for treating many different types of cancers.

Question: For `CC(=O)OCc1ccc(-c2ccc3cc(C(=O)O)ccc3c2)cc1C12CC3CC(CC(C3)C1)C2` [Compound 5, 6-[3-(1-adamantyl)-4-acetoxymethylphenyl]-2-naphthoic acid], which “Types of Cancers and Precancers Active Against” value (“Types” for short) is on record?
Answer: head and neck, leukemia, lung,; also recorded: lymphoma, myeloma, pancre-; also recorded: atic, skin

Question: For `COc1ccc(-c2ccc3cc(C(=O)N4CCNCC4)ccc3c2)cc1C12CC3CC(CC(C3)C1)C2` [Compound 7, N-{6-[3-(1-adamantyl)-4-methoxyphenyl]-2-naphthalenecarboxoyl}piperizide], which “Types” value is on record?
Answer: brain, breast, head and neck,; also recorded: myeloma, prostate, skin

Question: `COc1ccc(C(=O)C#Cc2ccc(C(=O)O)cc2)cc1C12CC3CC(CC(C3)C1)C2` [Compound 8, 4-{3-oxo-3-[3-(1-adamantyl)-4-methoxyphenyl]-1-propynyl}benzoic acid] was tested. Which “Types” value did it give?
Answer: brain, breast, leukemia, lung,; also recorded: lymphoma, skin, liver

Question: `COc1cc(NC(=O)c2ccc(OC)c(C34CC5CC(CC(C5)C3)C4)c2)ccc1C(=O)O` [Compound 9, 4-[N-(3-(1-adamantyl)-4-methoxybenzoyl)amido]2-methoxybenzoic acid] was tested. Which “Types” value did it give?
Answer: head and neck, kidney, ovarian, and skin

Question: With `COc1ccc(-c2nc3ccc(C)cc3[nH]2)cc1C12CC3CC(CC(C3)C1)C2` [Compound 10, 2-[3-(1-adamantyl)-4-methoxyphenyl]-5-methylbenzimidazole] as the molecule, how does the “Types” value read?
Answer: leukemia, lymphoma, myeloma

Question: With `O=C(O)c1ccc2cc(-c3ccc(C(O)CO)c(C45CC6CC(CC(C6)C4)C5)c3)ccc2c1` (stereo not shown) [Compound 11, 6-[3-(1-adamantyl)-4-(1,2-dihydroxyethyl)phenyl]-2-naphthoic acid] as the molecule, how does the “Types” value read?
Answer: brain, breast, leukemia,; also recorded: pancreatic, skin

Question: How did the “Types” value turn out when `Cc1cc(O)c(C23CC4CC(CC(C4)C2)C3)cc1-c1ccc2cc(C(=O)O)ccc2c1` [Compound 12, 6-[3-(1-adamantyl)-4-hydroxy-6-methylphenyl]-2-naphthoic acid] was run?
Answer: head and neck, leukemia,; also recorded: pancreatic

Question: With `COc1cc(C)c(-c2ccc3cc(C(=O)O)ccc3c2)cc1C12CC3CC(CC(C3)C1)C2` [Compound 13, 6-[3-(1-adamantyl)-4-methoxy-6-methylphenyl]-2-naphthoic acid] as the molecule, how does the “Types” value read?
Answer: brain, head and neck, leukemia,; also recorded: pancreatic

Question: Which “Types” value does the source give for `OCc1ccc2cc(-c3ccc(O)c(C45CC6CC(CC(C6)C4)C5)c3)ccc2c1` [Compound 14, 6-[3-(1-adamantyl)-4-hydroxyphenyl]-2-hydroxymethylnaphthalene] here?
Answer: bladder, kidney, skin

Question: `COc1ccc(COc2ccc(C(=O)O)cc2)cc1C12CC3CC(CC(C3)C1)C2` [Compound 15, 4-[3-(1-adamantyl)-4-methoxybenzyloxy]benzoic acid] was tested. Which “Types” value did it give?
Answer: breast, leukemia, prostate

Question: `COc1ccc(-c2cc3cc(C(=O)O)ccc3o2)cc1C12CC3CC(CC(C3)C1)C2` [Compound 16, 2-[3-(1-adamantyl)-4-methoxyphenyl]-5-benzofurancarboxylic acid] was tested. Which “Types” value did it give?
Answer: brain, breast, prostate

Question: With `COC(=O)c1ccc2cc(-c3ccc(O)c(C45CC6CC(CC(C6)C4)C5)c3)ccc2c1` [Compound 17, 6-[3-(1-adamantyl)-4-hydroxyphenyl]-2-naphthoic acid methyl ester] as the molecule, how does the “Types” value read?
Answer: leukemia

Question: How did the “Types” value turn out when `COC(=O)c1cc(O)c2cc(-c3ccc(OC)c(C45CC6CC(CC(C6)C4)C5)c3)ccc2c1C` [Compound 18, 1-methyl-4-hydroxy-6-[3-(1-adamantyl)-4-methoxyphenyl]-2-naphthoic acid methyl ester] was run?
Answer: lymphoma, liver

Question: Which “Types” value does the source give for `COc1ccc(C(=O)Nc2ccc(C(=O)N3CCOCC3)cc2)cc1C12CC3CC(CC(C3)C1)C2` [Compound 19, N-{4-[N-(3-(1-adamantyl)-4-methoxybenzoyl)amido]benzoyl}morpholide] here?
Answer: kidney, myeloma, prostate, skin

Question: With `COc1ccc(C(=O)Oc2ccc(C(=O)O)c(F)c2)cc1C12CC3CC(CC(C3)C1)C2` [Compound 20, 4-[3-(1-adamantyl)-4-methoxybenzoyloxy]-2-fluorobenzoic acid] as the molecule, how does the “Types” value read?
Answer: lymphoma, skin

Question: With `COc1ccc(C(=O)Oc2ccc(C(=O)O)cc2F)cc1C12CC3CC(CC(C3)C1)C2` [Compound 21, 4-hydroxycarbonyl-2-fluorophenyl ester of 3-(1-adamantyl)-4-methoxybenzoic acid] as the molecule, how does the “Types” value read?
Answer: leukemia

Question: For `CCc1ccc(-c2ccc3cc(C(=O)O)ccc3c2)cc1C12CC3CC(CC(C3)C1)C2` [Compound 22, 6-[3-(1-adamantyl)-4-ethylphenyl]-2-naphthoic acid], which “Types” value is on record?
Answer: breast, leukemia, myeloma

Question: For `O=C(O)c1ccc2cc(-c3ccc(OCCCO)c(C45CC6CC(CC(C6)C4)C5)c3)ccc2c1` [Compound 23, 6-[3-(1-adamantyl)-4-(3-hydroxypropoxy)phenyl]-2-naphthoic acid], which “Types” value is on record?
Answer: breast, leukemia, lymphoma

Question: `NC(=O)c1ccc(-c2ccc3cc(C(=O)O)ccc3c2)cc1C12CC3CC(CC(C3)C1)C2` [Compound 24, 6-[3-(1-adamantyl)-4-aminocarbonylphenyl]-2-naphthoic acid] was tested. Which “Types” value did it give?
Answer: leukemia, lymphoma

Question: Which “Types” value does the source give for `O=C(CC(=O)C12CC3CC(CC(C3)C1)C2)Nc1ccc(C(=O)O)cc1` [Compound 25, N-(4-carboxyphenyl)-3-(1-adamantyl)-3-oxopropionamide] here?
Answer: lymphoma

Question: For `COc1ccc(C(O)COc2ccc(C(=O)O)c(O)c2)cc1C12CC3CC(CC(C3)C1)C2` (stereo not shown) [Compound 26, 2-hydroxy-4-{2-[3-(1-adamantyl)-4-methoxyphenyl]-2-hydroxyethoxy}benzoic acid], which “Types” value is on record?
Answer: lymphoma

Question: For `O=C(O)c1ccc2cc(-c3ccc(OC[C@@H](O)CO)c(C45CC6CC(CC(C6)C4)C5)c3)ccc2c1` [Compound 27, (S)-6-[3-(1-adamantyl)-4-(2S,3-dihydroxypropoxy)phenyl]-2-naphthoic acid], which “Types” value is on record?
Answer: leukemia

Question: `COc1cc(C(=O)/C=C/c2ccc(C(=O)O)cc2)ccc1C12CC3CC(CC(C3)C1)C2` [Compound 28, (E) 4-{3-oxo-3-[3-methoxy-4-(1-adamantyl)phenyl]prop-1-enyl}benzoic acid] was tested. Which “Types” value did it give?
Answer: leukemia

Question: How did the “Types” value turn out when `COCCOCOc1ccc(C(=O)/C=C/c2ccc(C(=O)O)cc2)cc1C12CC3CC(CC(C3)C1)C2` [Compound 29, (E) 4-{3-oxo-3-[4-(2-methoxyethoxymethoxy)-3-(1-adamantyl)phenyl]prop-1-enyl}benzoic acid] was run?
Answer: brain, leukemia, lung,; also recorded: lymphoma, prostate

Question: How did the “Types” value turn out when `NC(=O)CCCCCOc1ccc(/C=C/c2ccc(C(=O)O)cc2)cc1C12CC3CC(CC(C3)C1)C2` [Compound 30, (E) 4-{2-[4-(6-aminocarbonylpentyloxy)-3-(1-adamantyl)phenyl]ethenyl}benzoic acid] was run?
Answer: lymphoma, myeloma

Question: How did the “Types” value turn out when `COc1ccc(C(=N)Nc2ccc(C(=O)O)cc2)cc1C12CC3CC(CC(C3)C1)C2` [Compound 31, 3-(1-adamantyl)-4-methoxy-N-(4-carboxyphenyl)benzamidine] was run?
Answer: leukemia

Question: For `CCC1OC(=O)C(C)C(OC2CC(C)(OC)C(OC(=O)c3ccc4cc(-c5ccc(OC)c(C67CC8CC(CC(C8)C6)C7)c5)ccc4c3)C(C)O2)C(C)C(OC2OC(C)CC(N(C)C)C2O)C(C)(O)CC(C)C(=O)C(C)C(O)C1(C)O` (stereo not shown) [Compound 32, 4″-Erythromycin A ester of 6-[3-(1-adamantyl)-4-methoxyphenyl]2-naphthoic acid], which “Types” value is on record?
Answer: leukemia, lymphoma

Question: Which “Types” value does the source give for `O=C(O)c1ccc(OC(=O)c2ccc(OCC(O)CO)c(C34CC5CC(CC(C5)C3)C4)c2)cc1` (stereo not shown) [Compound 33, 4-carboxyphenyl ester of 3-(1-adamantyl)-4-(2,3-dihydroxyproproxy)benzoic acid] here?
Answer: leukemia, skin

Question: Which “Types” value does the source give for `O=C(O)c1ccc2cc(-c3ccc(OCC(O)CO)c(C45CC6CC(CC(C6)C4)C5)c3)ccc2c1` (stereo not shown) [Compound 34, 6-[3-(1-adamantyl)-4-(2,3-dihydroxypropoxy)phenyl]-2-naphthoic acid] here?
Answer: leukemia, skin

Question: `COC(=O)c1ccc(C(=O)Nc2ccc(C(=O)O)cc2)cc1C12CC3CC(CC(C3)C1)C2` [Compound 35, N-4-carboxyphenyl 3-(1-adamantyl)-4-(methoxycarbonyl)benzamide] was tested. Which “Types” value did it give?
Answer: leukemia, lymphoma, myeloma

Question: Which “Types” value does the source give for `O=C(O)c1ccc2cc(-c3cc(O)c(O)c(C45CC6CC(CC(C6)C4)C5)c3)ccc2c1` [Compound 36, 6-[3-(1-adamantyl)-4,5-dihydroxyphenyl]-2-naphthoic acid] here?
Answer: brain, head and neck, leukemia,; also recorded: lymphoma, myeloma, pancreatic

Question: `CC12CC3CC(C1)CC(c1cc(-c4ccc5cc(C(=O)O)ccc5c4)cc4c1OCO4)(C3)C2` [Compound 37, 6-[3-(3-methyl-1-adamantyl)-4,5-methylenedioxyphenyl]-2-naphthoic acid] was tested. Which “Types” value did it give?
Answer: kidney, leukemia, lung,; also recorded: lymphoma, skin

Question: With `O=C(O)c1ccc2cc(-c3cc4c(c(C56CC7CC(CC(C7)O5)C6)c3)OCO4)ccc2c1` [Compound 38, 6-[3-(2-oxa-1-adamantyl)-4,5-methylenedioxyphenyl]-2-naphthoic acid] as the molecule, how does the “Types” value read?
Answer: leukemia, skin

Question: With `COc1ccc(-c2ccc3cc(C(=O)O)ccc3c2)cc1C12CC3CC(CC(C3)O1)C2` [Compound 39, 6-[3-(2-oxa-1-adamantyl)-4-methoxyphenyl]-2-naphthoic acid] as the molecule, how does the “Types” value read?
Answer: kidney, lymphoma, skin, liver
